This passage reports EC50, IC50 and DC50 results from patent US10738041B2, “Ferroportin inhibitors” (Vifor (International) AG, priority 2015, dated 2020).

One may read the EC50 as the midpoint of the concentration-response curve. As a reminder, the IC50 is the point on the concentration scale where inhibition reaches its midpoint.

Like-named read-outs stand apart in the source and are kept apart here.

Assay [1] deals with T1, human Fpn-GFP fusion (Homo sapiens, UniProt Q9NP59).
T1 construct: expressed in transfected cells; host or cells: HEK-293 cell line #354 (derivative of HEK-293 Tet-ON Advanced, Clontech)
T1 sequence (Q9NP59 1-571): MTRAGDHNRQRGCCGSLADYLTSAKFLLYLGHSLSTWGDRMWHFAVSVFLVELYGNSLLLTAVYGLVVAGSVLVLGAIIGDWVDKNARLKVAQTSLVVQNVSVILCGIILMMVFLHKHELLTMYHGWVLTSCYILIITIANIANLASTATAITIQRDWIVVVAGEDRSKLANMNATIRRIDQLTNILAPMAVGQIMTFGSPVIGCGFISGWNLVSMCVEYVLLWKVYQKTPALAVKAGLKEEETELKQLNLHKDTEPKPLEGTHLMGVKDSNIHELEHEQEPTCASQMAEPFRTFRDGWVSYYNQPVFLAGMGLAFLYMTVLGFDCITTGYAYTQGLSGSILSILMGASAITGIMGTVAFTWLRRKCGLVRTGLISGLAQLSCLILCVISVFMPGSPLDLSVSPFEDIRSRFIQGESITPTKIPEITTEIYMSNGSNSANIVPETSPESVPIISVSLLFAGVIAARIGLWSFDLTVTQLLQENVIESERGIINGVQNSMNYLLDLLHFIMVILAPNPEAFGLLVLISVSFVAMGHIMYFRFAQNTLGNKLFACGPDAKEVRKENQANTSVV
The experiment in a line: Ferroportin Internalization and Degradation Assay (FACS). The note with it: average of multiple measurements, Fpn-GFP MFI, HEK-293 cell line #354, FACS. In kind it is cell-based. The protocol: Growing HEK-293 #354 cells in doxycycline containing media induced expression of human Fpn-GFP fusion protein on the cell surface. […] Small molecular weight Fpn inhibitor compounds were tested for dose-dependent effects on the Fpn-GFP mean fluorescence intensity (MFI) on HEK-293 cell line #354, as described below. HEK #354 cells were harvested from ca. 80% confluent cultures, seeded at 0.6×10^6 (cells/ml in DMEM/F12 GlutaMAX™ medium (Invitrogen, Cat. 31331-028) containing 10% FBS (Clontech, Cat. 631106), 1% Penicillin-Streptomycin (Invitrogen, Cat. 15140-122), 200 μg/ml Hygromycin B (Invitrogen, Cat. 10687-010), Blasticidin 5 μg/ml, (Invitrogen, Cat. R210-01), 4 μg/ml doxycycline (Clontech, Cat. 631311), 50 μl per well of 384 well plates (Greiner; Cat. 781091) and grown at 37° C. with 5% CQ. After overnight incubation, 10 μl/well of dilution series of the test compounds were added in quadruplicates and plates were further incubated overnight at 37° C. with 5% CO2. Cells were washed once with FACS buffer (PBS containing 1% FBS, 2 mM EDTA and 0.05% NaN3), harvested in FACS buffer with 0.5 μg/ml propidium iodide (Sigma, Cat. P4864) and analyzed in a flow cytometer (CANTO™ II, BD Biosciences) equipped with high throughput sampler. Live HEK #354 cells were gated as propidium iodide negative population and analyzed for expression of Fpn-GFP.

Another assay concerns the target T2, human Fpn (Homo sapiens, UniProt Q9NP59).
T2 construct: FLAG (C); made in house; host or cells: Pichia pastoris
T2 sequence (Q9NP59 1-571): T1 sequence (Q9NP59 1-571)
The experiment in a line: Biophysical Ferroportin-Hepcidin Binding Assay (fluorescence polarization). The method in brief:
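FP readout: a dose-dependent drop in TMR-hepcidin polarization (mP, from parallel and perpendicular emission) marked blocked binding to FLAG-tagged human Fpn purified from Pichia pastoris. Final levels were 1 μM Fpn and 20 nM TMR-hepcidin, with compound dilutions in duplicate, incubated 90 min at room temperature.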
On the technique in general: Fluorescence polarisation rises when a labelled molecule tumbles more slowly, as on binding a larger partner.

Assay [2] deals with T1, human Fpn-GFP fusion. Put plainly: Inhibition of ferroportin mediated iron export activity in an iron response assay (BLAzer). Type of assay: cell-based. The procedure, abridged: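 HEK-293 Tet-ON line with doxycycline-inducible Fpn-GFP and a ferritin promoter/IRE-BLA reporter was treated overnight at 37° C with compound dilutions in quadruplicate.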
The mark [3] stands for this setting: average of multiple measurements, 1 μM human Fpn, 20 nM TMR-hepcidin, read-out: FP IC50.
[4] abbreviates: average of multiple measurements, HEK-293 cell line #354, read-out: BLAzer EC50.

Consider `O=C(NCc1ncccc1F)c1coc(CCNCc2nc3ccccc3[nH]2)n1` [Example 126], for which the EC50 was determined as 757 nM on human Fpn-GFP fusion [1] and 1260 nM at human Fpn-GFP fusion [2] (setting [4]). Further, the IC50 at human Fpn (setting [3]) is 120 nM.
On to `CC[C@H](C)[C@@H]1NC(=O)[C@@H](NC(=O)[C@@H](NC(=O)[C@@H]2CCCN2C(=O)[C@H](Cc2ccccc2)NC(=O)[C@H](Cc2c[nH]cn2)NC(=O)[C@@H](NC(=O)[C@@H](N)CC(=O)O)[C@@H](C)O)[C@@H](C)CC)CSSC[C@@H](C(=O)N[C@@H](CCCCN)C(=O)N[C@H](C(=O)O)[C@@H](C)O)NC(=O)[C@@H]2CSSC[C@@H]3NC(=O)[C@@H]4CSSC[C@H](NC(=O)[C@H](Cc5ccccc5)NC1=O)C(=O)N[C@@H](CSSC[C@H](NC(=O)[C@H](CCCCN)NC(=O)[C@H](CO)NC(=O)[C@H](CCCNC(=N)N)NC(=O)[C@H](Cc1c[nH]cn1)NC3=O)C(=O)NCC(=O)N[C@@H](CCSC)C(=O)N2)C(=O)NCC(=O)N4` [hepcidin, reference compound], for which, at human Fpn-GFP fusion [1] (read-out: EC50 ferroportin internalization and degradation), the DC50 worked out at 4 ± 2 nM. In addition, the IC50 on human Fpn was found to be 370 ± 67 nM. This molecule also yielded an EC50 at human Fpn-GFP fusion [2] of 96 ± 63 nM.
In the case of `O=C(NCc1ncccc1Cl)c1csc(CCNCc2nc3ccccc3[nH]2)n1` [Example 82], the values for the EC50 at human Fpn-GFP fusion [1] and on human Fpn-GFP fusion [2] (setting [4]) were 689 nM and 760 nM, respectively. The IC50 on human Fpn (setting [3]) was determined as 374 nM.
On to `O=C(NCc1ncc(F)cc1F)c1csc(CCNCCc2nc3ccccc3[nH]2)n1` [Example 116], for which the EC50 was found to be 590 nM at human Fpn-GFP fusion [1] and 2790 nM at human Fpn-GFP fusion [2] (setting [4]). In addition, the IC50 on human Fpn (setting [3]) came to 58 nM.
For `O=C(NCc1ncccc1Cl)c1cnn(CCNCCc2nc3ccccc3[nH]2)c1` [Example 144], in that order: 43 nM, 470 nM and 73 nM.
